{"source": "patent US9006221B2", "about": "“Method of modulating ship activity” (H. Lee Moffitt Cancer Center and Reserach Institute, Inc., priority 2008, dated 2015)", "key": {"KG1 cells": {"tested_on": "KG1 cells", "experiment": "Apoptosis of KG1 cells (Western blot, Annexin V/PI FACS)", "type": "cell-based, human", "procedure": "(A) SHIP1 expression in KG1 and MG63 cells was determined by Western blotting (top). Membranes were reprobed with antibodies against b-actin to confirm equal loading (lower panel). One representative blot of 2 individual experiments is shown. (B) KG1 and MG63 cells were plated in duplicate in 96 well plates, and treated for 36 hours with increasing concentrations of the 3α-aminocholestane. Cell viability was assessed by MTT assay. Results represent the mean of three individual experiments. (C) KG1 cells were treated with increasing concentrations of 3α-aminocholestane for 36 hours and hallmarks of apoptosis were identified in cell lysates by Western Blot analysis. Membranes were probed with antibodies against PARP and cleaved PARP (cPARP, upper panel) and cleaved Caspase 3 (cCaspase 3, middle panel). Equal protein loading was confirmed by reprobing the blots with anti-b-actin antibodies (lower panel). A representative example of 2 independent experiments is shown. (D) KG1 cells were treated with increasing concentrations of 3α-aminocholestane, and the percentage of AnnexinV and PI positive cells was determined by FACS analysis. A representative example of 2 individual experiments is shown.\nIt was a concern that SHIP1 inhibitors might potentially enhance the survival and growth of blood cell cancers. Conversely, as discussed above, SHIP1 inhibition could also […] Akt activation and therefore might also antagonize the survival of malignant blood cells. The two possibilities were tested by treating the AML cell line (KG-1) that expresses SHIP1 (FIG. 17a) with 3α-aminocholestane. […]\nPreparation of cell lysates and Western blotting: Cells were counted, centrifuged and resuspended in Laemmli sample buffer. […]\nAnnexin V staining Annexin V/Propidium Iodide (PI) staining was performed using the Annexin V-FITC apoptosis detection kit from BD Pharmingen (Sharon, Mass.) per the manufacturer's instructions. […] Fluorescence was determined by flow cytometry (LSR II, Becton Dickinson Medical Systems, Sharon, Mass.)."}, "SHIP1": {"target": "T1, SHIP1 (Mus musculus, UniProt Q9ES52)", "T1 construct": "The asterisk in lanes 1 and 3 indicates the ˜145 kD full-length SHIP protein; His tag (C); made in house; host or cells: E. coli Rosetta-Gami 2 (DE3) pLys", "T1 sequence (Q9ES52 1-1191)": "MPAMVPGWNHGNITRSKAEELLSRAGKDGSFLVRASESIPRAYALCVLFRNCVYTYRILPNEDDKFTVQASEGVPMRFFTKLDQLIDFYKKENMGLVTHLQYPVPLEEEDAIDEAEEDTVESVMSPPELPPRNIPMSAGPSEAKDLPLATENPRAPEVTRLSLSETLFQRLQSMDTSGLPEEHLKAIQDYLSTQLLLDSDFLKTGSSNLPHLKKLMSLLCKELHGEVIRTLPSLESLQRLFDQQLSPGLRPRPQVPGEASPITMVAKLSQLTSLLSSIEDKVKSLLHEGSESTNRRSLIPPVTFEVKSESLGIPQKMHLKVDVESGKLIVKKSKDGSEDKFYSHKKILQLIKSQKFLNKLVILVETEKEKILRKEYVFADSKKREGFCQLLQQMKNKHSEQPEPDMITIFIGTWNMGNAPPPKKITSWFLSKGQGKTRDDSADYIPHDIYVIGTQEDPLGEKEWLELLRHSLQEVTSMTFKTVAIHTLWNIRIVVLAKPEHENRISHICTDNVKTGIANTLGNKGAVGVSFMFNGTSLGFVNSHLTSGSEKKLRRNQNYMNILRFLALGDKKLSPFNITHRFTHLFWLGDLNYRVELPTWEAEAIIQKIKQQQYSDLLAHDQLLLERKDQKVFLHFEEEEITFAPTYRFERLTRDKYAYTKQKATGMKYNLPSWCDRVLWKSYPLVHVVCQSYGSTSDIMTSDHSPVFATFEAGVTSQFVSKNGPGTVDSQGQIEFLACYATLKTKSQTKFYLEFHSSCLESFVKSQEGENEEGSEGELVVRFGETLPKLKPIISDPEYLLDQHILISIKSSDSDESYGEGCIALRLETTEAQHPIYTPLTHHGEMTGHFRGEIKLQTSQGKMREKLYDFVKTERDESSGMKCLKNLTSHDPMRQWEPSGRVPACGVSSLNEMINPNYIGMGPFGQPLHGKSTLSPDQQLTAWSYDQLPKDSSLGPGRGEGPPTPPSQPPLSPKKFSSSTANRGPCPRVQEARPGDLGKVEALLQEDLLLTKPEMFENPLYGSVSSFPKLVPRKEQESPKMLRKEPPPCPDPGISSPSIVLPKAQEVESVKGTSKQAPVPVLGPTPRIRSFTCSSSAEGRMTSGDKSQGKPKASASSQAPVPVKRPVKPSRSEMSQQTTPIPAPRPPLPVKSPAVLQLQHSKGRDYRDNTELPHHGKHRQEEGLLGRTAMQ", "experiment": "Fluorescence polarization (FP) assay of SHIP1 enzymatic activity", "type": "biochemical", "conditions": "0.1 μg of recombinant SHIP1, FP assay"}}}
{"smiles": "CC(C)CCC[C@@H](C)[C@H]1CC[C@H]2[C@@H]3CC[C@H]4C[C@H](N)CC[C@]4(C)[C@H]3CC[C@]12C", "note": "[NSC23922, (3R,5S,8R,9S,10S,13R,14S,17R)-10,13-dimethyl-17-[(2R)-6-methylheptan-2-yl]-2,3,4,5,6,7,8,9,11,12,14,15,16,17-tetradecahydro-1H-cyclopenta[a]phenanthren-3-amine]", "values": [{"measurement": "frequency of AnnexinV+ cells", "setting": "KG1 cells; KG1, 36 hours, FACS", "result": "increased frequency"}, {"measurement": "cleavage of PARP and Caspase 3", "setting": "KG1 cells; KG1, 36 hours, Western blot", "result": "increased cleavage"}, {"measurement": "activation of Akt/PKB", "setting": "KG1 cells; KG1, Western blot", "result": "decreased activation"}, {"measurement": "inhibition at 10 µM", "setting": "SHIP1", "result": 50, "unit": "%"}]}
